# Assay results published in patent publication US10231453B2, “5-substituted imidazole derivatives” (BAYER CROPSCIENCE AKTIENGESELLSCHAFT, priority 2015, dated 2019).
# Where two headings read alike, the source gives them in different places.
# Legend:
# [1] = Measurement of LogP values by HPLC on reversed phase columns (EEC directive 79/831 Annex V.A8); format: physicochemical; details: method [a]: LC-UV, acidic range, 0.1% formic acid in water and acetonitrile as eluent; Table 1
# Method: Measurement of Log P values was performed as outlined above.
# Botrytis cinerea = test: In vivo preventive test on Botrytis cinerea (grey mould) on gherkin, Examples B, Q1 and R2; details: Botrytis cinerea, 500 ppm of active ingredient, preventive spray, evaluated 4 to 5 days after inoculation, read-out: efficacy
# Alternaria brassicae = test: In vivo preventive test on Alternaria brassicae (leaf spot on radish), Examples A and R1; details: Alternaria brassicae, 144 h; for pest or weed control at 100 ppm: Example R1, rate of application 100 ppm
# Puccinia recondita = test: In vivo preventive test on Puccinia recondita (brown rust on wheat), Examples C and R3; details: Puccinia recondita, 264 h; 500 ppm of active ingredient; wheat, preventive spray, evaluated 11 days after inoculation; read-out: efficacy
# Septoria tritici = test: In vivo preventive test on Septoria tritici (leaf spot on wheat), Examples E, Q3 and R5; details: Zymoseptoria tritici, 576 h, 500 ppm of active ingredient; wheat, preventive spray, evaluated 24 days after inoculation; read-out: efficacy
# Sphaerotheca fuliginea = test: In vivo preventive test on Sphaerotheca fuliginea (powdery mildew on cucurbits), Examples F and R6; details: Podosphaera fuliginea, 360 h; 500 ppm of active ingredient; gherkin, preventive spray, evaluated 15 days after inoculation; read-out: efficacy
# Pyrenophora teres = test: In vivo preventive test on Pyrenophora teres (net blotch on barley), Examples D, Q2 and R4; details: Pyrenophora teres, 336 h, 500 ppm of active ingredient, preventive spray, evaluated 14 days after inoculation, read-out: efficacy
# Uromyces appendiculatus = test: In vivo preventive test on Uromyces appendiculatus (bean rust), Examples G and R7; details: 264 h, 500 ppm of active ingredient, bean, preventive spray, evaluated 11 days after inoculation, read-out: efficacy
# Pyricularia oryzae = test: whole plant or invertebrate; format: in vivo; details: 192 h, read-out: efficacy
# [2] = tested on: Blumeria graminis fsp. hordei; test: In vivo preventive Blumeria test (barley), Example K; details: 168 h, 500 ppm of active ingredient, preventive spray, evaluated 7 days after inoculation, read-out: efficacy
# Source text: After the spray coating has been dried, the plants are dusted with spores of Blumeria graminis fsp. hordei.
# Venturia inaequalis = test: In vivo preventive Venturia test (apples), Example J; details: 240 h, read-out: efficacy
# Method: After the spray coating has dried on, the plants are inoculated with an aqueous conidia suspension of the causal agent of apple scab (Venturia inaequalis) and then remain for 1 day in an incubation cabinet at approximately 20° C. and a relative atmospheric humidity of 100%.
# The plants are then placed in a greenhouse at approximately 21° C. and a relative atmospheric humidity of approximately 90%.
# The test is evaluated 10 days after the inoculation.
# Alternaria solani = test: In vivo preventive Alternaria test (tomatoes), Example H; details: 72 h, 100 ppm of active ingredient, preventive spray, evaluated 3 days after inoculation, read-out: efficacy
# Phakopsora pachyrhizi = test: In vivo preventive Phakopsora test (soybeans), Example I; details: 168 h, 100 ppm of active ingredient, preventive spray, evaluated 7 days after inoculation, read-out: efficacy
# [3] = 500 ppm of active ingredient, preventive spray, evaluated 6 days after inoculation, read-out: efficacy
# [4] = Example R1, rate of application 500 ppm, read-out: Efficacy in %
compound,measurement,setting,value
COc1ccccc1CC(O)(Cn1cncc1C#N)C1(Cl)CC1 (centres unmarked) [Example I-55],chromatographic logP,[1],2.93
same,pest or weed control at 500 ppm,Botrytis cinerea,90 to 100%
same,pest or weed control at 500 ppm,Alternaria brassicae; [3],80 to 89%
same,pest or weed control at 500 ppm,Puccinia recondita,90 to 100%
same,pest or weed control at 500 ppm,Septoria tritici,90 to 100%
same,pest or weed control at 500 ppm,Sphaerotheca fuliginea,90 to 100%
same,pest or weed control at 500 ppm,Pyrenophora teres,80 to 89%
same,pest or weed control at 500 ppm,Uromyces appendiculatus,90 to 100%
OC(Cc1cccc(Cl)c1Cl)(Cn1cncc1Cl)C1(Cl)CC1 (centres unmarked) [Example I-66],chromatographic logP,[1],2.69
same,pest or weed control at 500 ppm,Botrytis cinerea,70 to 79%
same,pest or weed control at 500 ppm,Alternaria brassicae; [3],70 to 79%
same,pest or weed control at 500 ppm,Puccinia recondita,90 to 100%
same,pest or weed control at 500 ppm,Septoria tritici,90 to 100%
same,pest or weed control at 500 ppm,Sphaerotheca fuliginea,90 to 100%
same,pest or weed control at 500 ppm,Pyrenophora teres,90 to 100%
same,pest or weed control at 500 ppm,Uromyces appendiculatus,90 to 100%
N#Cc1cncn1CC(O)(Cc1ccccc1Cl)CC1CC1 (centres unmarked) [Example I-84],chromatographic logP,[1],2.84
same,pest or weed control at 500 ppm,Puccinia recondita,90 to 100%
same,pest or weed control at 500 ppm,Septoria tritici,90 to 100%
same,pest or weed control at 500 ppm,Sphaerotheca fuliginea,90 to 100%
same,pest or weed control at 500 ppm,Pyrenophora teres,80 to 89%
same,pest or weed control at 500 ppm,Uromyces appendiculatus,90 to 100%
same,pest or weed control at 500 ppm,Pyricularia oryzae,70 to 79%
same,pest or weed control at 500 ppm,[2],90 to 100%
N#Cc1cncn1CC(O)(Cc1ccncc1C(F)(F)F)C1(Cl)CC1 (centres unmarked) [Example I-92],chromatographic logP,[1],2.18
same,pest or weed control at 500 ppm,Puccinia recondita,80 to 89%
same,pest or weed control at 500 ppm,Septoria tritici,90 to 100%
same,pest or weed control at 500 ppm,Sphaerotheca fuliginea,90 to 100%
same,pest or weed control at 500 ppm,Uromyces appendiculatus,90 to 100%
same,pest or weed control at 500 ppm,Pyricularia oryzae,80 to 89%
same,pest or weed control at 500 ppm,[2],90 to 100%
Cc1cc(F)ccc1CC(O)(Cn1cncc1C#N)C1(Cl)CC1 (centres unmarked) [Example I-153],pest or weed control at 100 ppm,Venturia inaequalis,80 to 89%
same,pest or weed control at 100 ppm,Alternaria solani,90 to 100%
same,pest or weed control at 500 ppm,Puccinia recondita,90 to 100%
same,pest or weed control at 500 ppm,Septoria tritici,90 to 100%
same,pest or weed control at 500 ppm,Sphaerotheca fuliginea,90 to 100%
same,pest or weed control at 100 ppm,Phakopsora pachyrhizi,90 to 100%
same,pest or weed control at 500 ppm,Pyrenophora teres,80 to 89%
same,pest or weed control at 500 ppm,Uromyces appendiculatus,90 to 100%
OC(Cc1ccc(F)cc1)(Cn1cncc1Cl)C1(Cl)CC1 (centres unmarked) [Example I-158],chromatographic logP,[1],2.13
same,pest or weed control at 100 ppm,Alternaria solani,90 to 100%
same,pest or weed control at 500 ppm,Botrytis cinerea,90 to 100%
same,pest or weed control at 500 ppm,Puccinia recondita,80 to 89%
same,pest or weed control at 500 ppm,Septoria tritici,90 to 100%
same,pest or weed control at 500 ppm,Sphaerotheca fuliginea,90 to 100%
same,pest or weed control at 100 ppm,Phakopsora pachyrhizi,90 to 100%
same,pest or weed control at 500 ppm,Pyrenophora teres,90 to 100%
same,pest or weed control at 500 ppm,Uromyces appendiculatus,90 to 100%
N#Cc1cncn1CC(O)(Cc1cc(F)ncc1Cl)C1(Cl)CC1 (centres unmarked) [Example I-165],chromatographic logP,[1],2.38
same,pest or weed control at 500 ppm,Puccinia recondita,90 to 100%
same,pest or weed control at 500 ppm,Septoria tritici,90 to 100%
same,pest or weed control at 500 ppm,Sphaerotheca fuliginea,90 to 100%
same,pest or weed control at 500 ppm,Uromyces appendiculatus,90 to 100%
same,pest or weed control at 500 ppm,Pyricularia oryzae,90 to 100%
same,pest or weed control at 500 ppm,[2],90 to 100%
"OC(Cc1ccccc1Cl)(Cn1cnc(Br)c1)C1(Cl)CC1 (centres unmarked) [drawing 59, reference compound]",pest or weed control at 100 ppm,Alternaria brassicae; read-out: Efficacy in %,0%
same,pest or weed control at 500 ppm,Alternaria brassicae; [4],40%
"Cc1cn(CC(O)(Cc2ccccc2Cl)C2(Cl)CC2)cn1 (centres unmarked) [drawing 61, reference compound]",pest or weed control at 100 ppm,Alternaria brassicae; read-out: Efficacy in %,0%
same,pest or weed control at 500 ppm,Alternaria brassicae; [4],0%
"OC(Cc1ccccc1F)(Cn1cnc(Cl)c1)C1(Cl)CC1 (centres unmarked) [drawing 63, reference compound]",pest or weed control at 100 ppm,Alternaria brassicae; read-out: Efficacy in %,0%
same,pest or weed control at 500 ppm,Alternaria brassicae; [4],0%
"OC(Cc1ccccc1F)(Cn1ccnc1Cl)C1(Cl)CC1 (centres unmarked) [drawing 64, reference compound]",pest or weed control at 100 ppm,Alternaria brassicae; read-out: Efficacy in %,0%
same,pest or weed control at 500 ppm,Alternaria brassicae; [4],0%
"N#Cc1cn(CC(O)(Cc2ccccc2F)C2(Cl)CC2)cn1 (centres unmarked) [drawing 68, reference compound]",pest or weed control at 100 ppm,Alternaria brassicae; read-out: Efficacy in %,0%
same,pest or weed control at 500 ppm,Alternaria brassicae; [4],0%
